Experimental findings from patent publication US20260327214A1, “1,3,4-OXADIAZOLE DERIVATIVE COMPOUNDS AS HISTONE DEACETYLASE 6 INHIBITOR, AND USES THEREOF” (CHONG KUN DANG PHARMACEUTICAL CORP., priority 2022, published 2026) are described below.

One experiment addresses T1, human recombinant HDAC1 (Homo sapiens, UniProt Q13547).
T1 construct: purchased Enzo Life Science BML-SE456
The experiment is described as follows: HDAC1 enzyme activity inhibition test (HDAC Fluorometric Drug Discovery Kit). The experiment is classed as biochemical. Conditions: 30° C., 60 minutes, 10 μM substrate. The method, boiled down: (§1)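 IC50 derived from fluorescence (Ex 360, Em 460) following 30 min development with Developer II. Each reaction held 0.3 μg human recombinant HDAC1 or HDAC6, 10 μM Fluor de Lys SIRT1 substrate and 5-fold serially diluted compound, incubated 60 min at 30 °C.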

Another experiment has as its target T2, human recombinant HDAC6 (Homo sapiens, UniProt Q9UBN7).
T2 construct: purchased Calbiochem 382180
T2 sequence (Q9UBN7 1-1215): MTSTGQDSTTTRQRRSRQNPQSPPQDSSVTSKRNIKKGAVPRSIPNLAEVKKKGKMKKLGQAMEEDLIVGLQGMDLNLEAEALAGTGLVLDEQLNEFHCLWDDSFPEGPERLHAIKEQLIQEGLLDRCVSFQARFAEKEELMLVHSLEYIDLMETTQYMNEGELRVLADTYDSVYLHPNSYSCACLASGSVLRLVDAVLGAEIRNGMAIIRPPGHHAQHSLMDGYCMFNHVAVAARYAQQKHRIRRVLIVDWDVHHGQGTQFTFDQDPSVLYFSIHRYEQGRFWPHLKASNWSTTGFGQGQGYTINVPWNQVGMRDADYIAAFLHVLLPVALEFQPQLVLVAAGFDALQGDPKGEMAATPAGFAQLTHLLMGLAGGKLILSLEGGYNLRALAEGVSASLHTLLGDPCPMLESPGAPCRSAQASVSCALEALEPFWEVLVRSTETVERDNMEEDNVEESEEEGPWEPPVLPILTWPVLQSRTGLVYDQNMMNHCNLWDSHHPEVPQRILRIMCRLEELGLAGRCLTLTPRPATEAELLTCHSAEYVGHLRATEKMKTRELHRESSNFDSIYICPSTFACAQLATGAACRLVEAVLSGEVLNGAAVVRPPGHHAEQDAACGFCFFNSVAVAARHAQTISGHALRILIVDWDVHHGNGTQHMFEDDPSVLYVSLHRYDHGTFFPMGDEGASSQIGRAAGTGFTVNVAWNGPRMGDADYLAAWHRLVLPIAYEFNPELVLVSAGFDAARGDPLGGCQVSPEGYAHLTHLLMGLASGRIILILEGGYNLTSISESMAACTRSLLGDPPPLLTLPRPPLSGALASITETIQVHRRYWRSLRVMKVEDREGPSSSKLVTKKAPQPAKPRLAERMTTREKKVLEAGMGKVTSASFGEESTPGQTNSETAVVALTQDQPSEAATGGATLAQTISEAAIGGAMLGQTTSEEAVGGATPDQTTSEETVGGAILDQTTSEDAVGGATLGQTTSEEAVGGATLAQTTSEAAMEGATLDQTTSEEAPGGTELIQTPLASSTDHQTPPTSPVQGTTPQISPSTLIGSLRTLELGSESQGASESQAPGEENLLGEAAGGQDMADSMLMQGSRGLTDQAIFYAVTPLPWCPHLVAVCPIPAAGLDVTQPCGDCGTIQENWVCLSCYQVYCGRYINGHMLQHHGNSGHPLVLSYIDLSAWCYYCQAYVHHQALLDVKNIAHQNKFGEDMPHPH
Nature of the experiment: HDAC6 enzyme activity inhibition test (HDAC Fluorometric Drug Discovery Kit). Type of experiment: biochemical. Conditions: for HDAC6 selectivity (fold): HDAC6 over HDAC1; for IC50: human recombinant HDAC6, same protocol as HDAC1. The method, boiled down: as §1

The structures appear in SMILES notation.

T1 sequence (Q13547 whole entry): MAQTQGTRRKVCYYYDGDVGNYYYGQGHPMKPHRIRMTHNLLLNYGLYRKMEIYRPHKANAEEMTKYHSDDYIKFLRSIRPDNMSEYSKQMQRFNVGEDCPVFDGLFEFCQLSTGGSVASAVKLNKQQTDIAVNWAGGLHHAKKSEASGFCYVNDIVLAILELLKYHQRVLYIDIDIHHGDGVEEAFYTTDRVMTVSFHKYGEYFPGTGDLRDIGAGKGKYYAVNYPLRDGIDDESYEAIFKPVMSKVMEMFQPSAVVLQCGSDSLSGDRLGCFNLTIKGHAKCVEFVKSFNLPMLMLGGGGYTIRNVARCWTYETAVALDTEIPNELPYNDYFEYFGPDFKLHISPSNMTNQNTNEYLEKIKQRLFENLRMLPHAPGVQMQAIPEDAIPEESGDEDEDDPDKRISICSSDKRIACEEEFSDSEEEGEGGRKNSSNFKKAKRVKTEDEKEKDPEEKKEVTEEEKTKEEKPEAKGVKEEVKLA

Usually IC50 stands for the concentration at which inhibition is half-maximal. For the compound `CN1CCc2cc(-c3nn(Cc4ncc(-c5nnc(C(F)F)o5)cc4F)c(=S)o3)ccc2C1` [Compound 135, 3-[[5-[5-(difluoromethyl)-1,3,4-oxadiazol-2-yl]-3-fluoro-2-pyridyl]methyl]-5-(2-methyl-3,4-dihydro-1H-isoquinolin-6-yl)-1,3,4-oxadiazol-2-thione], the IC50 on human recombinant HDAC1 was over 50 µM. At human recombinant HDAC6, the “HDAC6 selectivity (fold)” value is reported as 741 fold and the concentration for half-maximal inhibition (IC50) amounted to 67.5 nM.

As to `CC(C)N1CCc2cc(-c3nn(Cc4ncc(-c5nnc(C(F)F)o5)cc4F)c(=S)o3)ccc2C1` [Compound 136, 3-[[5-[5-(difluoromethyl)-1,3,4-oxadiazol-2-yl]-3-fluoro-2-pyridyl]methyl]-5-(2-isopropyl-3,4-dihydro-1H-isoquinolin-6-yl)-1,3,4-oxadiazol-2-thione], the IC50 was over 50 µM on human recombinant HDAC1 and 59.5 nM at human recombinant HDAC6. Also, the “HDAC6 selectivity (fold)” value at human recombinant HDAC6 stood at 840 fold.

With `Fc1cc(-c2nnc(C(F)F)o2)cnc1Cn1nc(-c2ccc3c(c2)CCN(C2CCC2)C3)oc1=S` [Compound 137, 5-(2-cyclobutyl-3,4-dihydro-1H-isoquinolin-6-yl)-3-[[5-[5-(difluoromethyl)-1,3,4-oxadiazol-2-yl]-3-fluoro-2-pyridyl]methyl]-1,3,4-oxadiazol-2-thione], on human recombinant HDAC1, the IC50 is over 50 µM. For the same compound, at human recombinant HDAC6, the “HDAC6 selectivity (fold)” value is 1075 fold and the IC50 came out at 46.5 nM.

`Fc1cc(-c2nnc(C(F)F)o2)cnc1Cn1nc(-c2ccc3c(c2)CCN(C2CCCCC2)C3)oc1=S` [Compound 138, 5-(2-cyclohexyl-3,4-dihydro-1H-isoquinolin-6-yl)-3-[[5-[5-(difluoromethyl)-1,3,4-oxadiazol-2-yl]-3-fluoro-2-pyridyl]methyl]-1,3,4-oxadiazol-2-thione]: the half-inhibitory concentration (IC50) at human recombinant HDAC1 is over 50 µM. Also, at human recombinant HDAC6, the “HDAC6 selectivity (fold)” value is reported as 1042 fold and the IC50 was determined as 48.7 nM.

On to `CN1CCc2cc(-c3nn(Cc4ccc(-c5nnc(C(F)F)o5)cn4)c(=S)o3)sc2C1` [Compound 139, 3-[[5-[5-(difluoromethyl)-1,3,4-oxadiazol-2-yl]-2-pyridyl]methyl]-5-(6-methyl-5,7-dihydro-4H-thieno[2,3-c]pyridin-2-yl)-1,3,4-oxadiazol-2-thione], for which the IC50 is over 50 µM on human recombinant HDAC1 and 90.6 nM at human recombinant HDAC6. Also, the “HDAC6 selectivity (fold)” value at human recombinant HDAC6 is 552 fold.

Consider `CCN1CCc2cc(-c3nn(Cc4ccc(-c5nnc(C(F)F)o5)cn4)c(=S)o3)sc2C1` [Compound 140, 3-[[5-[5-(difluoromethyl)-1,3,4-oxadiazol-2-yl]-2-pyridyl]methyl]-5-(6-ethyl-5,7-dihydro-4H-thieno[2,3-c]pyridin-2-yl)-1,3,4-oxadiazol-2-thione], for which, on human recombinant HDAC1, the IC50 was over 50 µM. On human recombinant HDAC6, the “HDAC6 selectivity (fold)” value is given as 1114 fold and the IC50 stood at 44.9 nM.

Regarding `CC(C)N1CCc2cc(-c3nn(Cc4ccc(-c5nnc(C(F)F)o5)cn4)c(=S)o3)sc2C1` [Compound 141, 3-[[5-[5-(difluoromethyl)-1,3,4-oxadiazol-2-yl]-2-pyridyl]methyl]-5-(6-isopropyl-5,7-dihydro-4H-thieno[2,3-c]pyridin-2-yl)-1,3,4-oxadiazol-2-thione], the IC50 on human recombinant HDAC1 is over 50 µM. Moreover, on human recombinant HDAC6, the “HDAC6 selectivity (fold)” value is given as 893 fold and the 50% inhibitory concentration (IC50) is 56 nM.

Take `O=c1oc(-c2ccccc2)cn1Cc1ccc(-c2nnc(C(F)F)o2)cn1` [Compound 142, 3-((5-(5-(difluoromethyl)-1,3,4-oxadiazol-2-yl)pyridin-2-yl)methyl)-5-phenyloxazol-2(3H)-one]: the figures for the IC50 at human recombinant HDAC1 and at human recombinant HDAC6 were over 50 µM and 103 nM, respectively. Also, at human recombinant HDAC6, the “HDAC6 selectivity (fold)” value came to 484 fold.

Regarding `O=c1oc(-c2cccc(F)c2)cn1Cc1ccc(-c2nnc(C(F)F)o2)cn1` [Compound 143, 3-((5-(5-(difluoromethyl)-1,3,4-oxadiazol-2-yl)pyridin-2-yl)methyl)-5-(3-fluorophenyl)oxazol-2(3H)-one], the IC50 on human recombinant HDAC1 was over 50 µM. Also, on human recombinant HDAC6, the “HDAC6 selectivity (fold)” value was 374 fold and the IC50 was determined as 134 nM.

Take `Cn1c(-c2ccccc2)cn(Cc2ccc(-c3nnc(C(F)F)o3)cn2)c1=O` [Compound 144, 1-((5-(5-(difluoromethyl)-1,3,4-oxadiazol-2-yl)pyridin-2-yl)methyl)-3-methyl-4-phenyl-1,3-dihydro-2H-imidazol-2-one]: the IC50 at human recombinant HDAC1 is over 50 µM. In addition, on human recombinant HDAC6, the “HDAC6 selectivity (fold)” value is 185 fold and the IC50 was 271 nM.
